Reference: ChEMBL document CHEMBL5724914, “Linking interpersonal differences in gut microbiota composition and drug biotransformation activity” (2024)

How the values were obtained:
[1] = (§1) The drug is tested on Z-029 corresponding to rat gut metagenome with ENA study accession number: PRJEB37062 and ENA sample accession number: ERS12561828 for biotransformation under anaerobic condition. The drug concentrations were measured over 9 timepoints collected between 0 and 24 hours of incubation by liquid-chromatography-coupled mass spectrometry (LC–MS); settings: 2 µM
[2] = as §1, with “on Z-024” for “on Z-029”, “to pig” for “to rat”, “number: ERS12561823” for “number: ERS12561828”; settings: 2 µM
[3] = as §1, with “on Z-020” for “on Z-029”, “to rabbit” for “to rat”, “number: ERS12561819” for “number: ERS12561828”; settings: 2 µM
[4] = as §1, with “on Z-017” for “on Z-029”, “to mouse” for “to rat”, “number: ERS12561816” for “number: ERS12561828”; settings: 2 µM
[5] = as §1, with “on Z-016” for “on Z-029”, “to mouse” for “to rat”, “number: ERS12561815” for “number: ERS12561828”; settings: 2 µM
[6] = as §1, with “on Z-006” for “on Z-029”, “to mouse” for “to rat”, “number: ERS12561806” for “number: ERS12561828”; settings: 2 µM
[7] = as §1, with “Z-005” for “Z-029”, “to” for “to rat gut”, “ERS12561805” for “ERS12561828”; settings: 2 µM
[8] = as §1, with “on Z-003” for “on Z-029”, “to pig” for “to rat”, “number: ERS12561803” for “number: ERS12561828”; settings: 2 µM
[9] = as §1, with “on WLS-370” for “on Z-029”, “to human” for “to rat”, “number: ERS12561793” for “number: ERS12561828”; settings: 2 µM
[10] = as §1, with “on WLS-090” for “on Z-029”, “to human” for “to rat”, “number: ERS12561753” for “number: ERS12561828”; settings: 2 µM
[11] = as §1, with “on WLS-073” for “on Z-029”, “to human” for “to rat”, “number: ERS12561749” for “number: ERS12561828”; settings: 2 µM
[12] = as §1, with “on WLS-039” for “on Z-029”, “to human” for “to rat”, “number: ERS12561746” for “number: ERS12561828”; settings: 2 µM
[13] = human gut metagenome, 24 h, 2 µM
[14] = human gut metagenome, 24 h, 2 µM; remark: listed apart in the source
[15] = human gut metagenome, 24 h, 2 µM; remark: listed apart in the source
[16] = human gut metagenome, 24 h, 2 µM; remark: listed apart in the source
[17] = human gut metagenome, 24 h, 2 µM; remark: listed apart in the source
[18] = human gut metagenome, 24 h, 2 µM; remark: listed apart in the source
[19] = human gut metagenome, 24 h, 2 µM; remark: listed apart in the source
[20] = human gut metagenome, 24 h, 2 µM; remark: listed apart in the source

Measured: Bacterial Biotransformation
Also: call rule not given here.

CN1CCN(C2=Nc3cc(Cl)ccc3Nc3ccccc32)CC1 [CLOZAPINE]
Compound NOT metabolized: [1] | [2] | [3] | [4] | [5] | [6] | [7] | [8] | [11] | [14] | [15] | [16] | [18]
Compound metabolized: [9] | [10] | [12] | [13] | [17] | [19] | [20]

Clc1ccc(Cn2c(CN3CCCC3)nc3ccccc32)cc1 [CLEMIZOLE]
Compound metabolized: [2] | [8] | [9] | [10] | [12] | [13] | [15] | [16] | [18] | [19] | [20]
Compound NOT metabolized: [1] | [3] | [4] | [5] | [6] | [7] | [11] | [14] | [17]

O=C1[C@H](CC[C@H](O)c2ccc(F)cc2)[C@@H](c2ccc(O)cc2)N1c1ccc(F)cc1 [EZETIMIBE]
Compound metabolized: [9] | [10] | [11] | [13]
Compound NOT metabolized: [1] | [2] | [3] | [4] | [5] | [6] | [7] | [8] | [12] | [14] | [15] | [16] | [17] | [18] | [19] | [20]

OC(Cn1cncn1)(Cn1cncn1)c1ccc(F)cc1F [FLUCONAZOLE]
Compound metabolized: [2] | [8] | [10] | [15] | [16] | [19] | [20]
Compound NOT metabolized: [1] | [3] | [4] | [5] | [6] | [7] | [9] | [11] | [12] | [13] | [14] | [17] | [18]

O=C(O)CCc1nc(-c2ccccc2)c(-c2ccccc2)o1 [OXAPROZIN]
Compound NOT metabolized: [1] | [2] | [4] | [6]
Compound metabolized: [3] | [5] | [7] | [8] | [9] | [10] | [11] | [12] | [13] | [14] | [15] | [16] | [17] | [18] | [19] | [20]

Cc1ccc(-c2cc(C(F)(F)F)nn2-c2ccc(S(N)(=O)=O)cc2)cc1 [CELECOXIB]
Compound NOT metabolized: [1] | [2] | [3] | [4] | [5] | [6] | [7] | [8] | [10] | [14] | [15] | [18] | [19]
Compound metabolized: [9] | [11] | [12] | [13] | [16] | [17] | [20]

CCc1nc(N)nc(N)c1-c1ccc(Cl)cc1 [PYRIMETHAMINE]
Compound NOT metabolized: [1] | [3] | [4] | [5] | [6] | [7] | [8] | [9] | [11] | [12] | [13] | [14] | [15] | [16] | [17] | [18]
Compound metabolized: [2] | [10] | [19] | [20]

CN(C)CC(c1ccc(O)cc1)C1(O)CCCCC1.O=C(O)CCC(=O)O (stereo not given) [DESVENLAFAXINE SUCCINATE]
Compound NOT metabolized: [1] | [2] | [3] | [4] | [5] | [6] | [7] | [8] | [9] | [10] | [11] | [12] | [13] | [14] | [15] | [16] | [17] | [18] | [19] | [20]
